{"source": "patent US5942494A", "about": "“Stimulation of gene expression and synthesis of heat shock protein 72/73 (HSP 70)” (The Trustees of Columbia University in the City of New York, priority 1996, dated 1999)", "key": {"[1]": {"tested_on": "human microvascular endothelial cell line", "test": "TCA-cpm measurement in human microvascular endothelial cell line", "type": "cell-based", "settings": "ALLN 40 μg/ml, 4 hours, 30 min. labeling"}, "Hsp90": {"tested_on": "Hsp90", "test": "Immunoprecipitation of Hsp90 from radiolabeled HepG2 cells", "type": "cell-based, human", "settings": "HepG2, ALLN 4 hours", "description": "(§1) FIGS. 7A-7B: Effects of ALLN on the biosynthesis of other members of Hsp family and related proteins. HepG2 cells were pre-treated and radiolabeled with or without ALLN for 4 hours as described in FIG. 1. Cell lysates were used for SDS-PAGE (A), or for immunoprecipitation with anti-Hsp25, -Hsp27, -Hsp60, -Hsp70, -Hsp86, -Hsp90, -Hsp104, -Bip, or -albumin antibodies respectively (1 μg/ml) (B). Because the anti-Hsp25, -Hsp27, -Hsp60 and Hsp90 antibodies are from a rat source, rabbit anti-rat IgG antibody was added after the first incubation, and the incubation was extended for another 1 hour at 4° C. before collection with protein A-Sepharose.Immunoprecipitates were loaded for SDS-PAGE and aliquoted for scintillation counting and plotting. Each value was presented as mean ±S.D. from three individual culture dishes.\n(§2) HepG2 cells were preincubated for 4 hours in serum-free MEM and then radiolabeled with ^3 H-Leucine (150 μCi/ml) in a serum-free, leucine-free medium. […] Cell lysates containing equal amounts of trichloroacetic acid (TCA)-insoluble radioactivity were used for immunoprecipitations by incubating with individual monoclonal antibody (1 μg/ml) for 2.5 hours at 4° C. […]"}, "Hsp25": {"tested_on": "Hsp25", "test": "Immunoprecipitation of Hsp25 from radiolabeled HepG2 cells", "type": "cell-based, human", "settings": "HepG2, ALLN 4 hours", "description": "as §1, §2"}, "Hsp27": {"tested_on": "Hsp27", "test": "Immunoprecipitation of Hsp27 from radiolabeled HepG2 cells", "type": "cell-based, human", "settings": "HepG2, ALLN 4 hours", "description": "as §1, §2"}, "Hsp86": {"tested_on": "Hsp86", "test": "Immunoprecipitation of Hsp86 from radiolabeled HepG2 cells", "type": "cell-based, human", "settings": "HepG2, ALLN 4 hours", "description": "as §1, §2"}, "apoB": {"tested_on": "apoB", "settings": "Sakata, et al., 1993, unpublished data; cited from earlier work"}}, "note": "Square brackets hold non-standard residues; d marks the D form. Peptide text beside a SMILES is read from it. Nle = CCCC[C@H](N)C(=O)O", "data": [{"smiles": "CCCC[C@@H](C=O)NC(=O)[C@H](CC(C)C)NC(=O)[C@H](CC(C)C)NC(C)=O", "note": "[ALLN, N-acetyl-leucyl-leucyl-norleucinal] (Ac-Leu-Leu-[Nle]-aldehyde)", "values": [{"measurement": "TCA-cpm measurement", "setting": "[1]", "result": "no change"}, {"measurement": "Effect on Hsp90", "setting": "Hsp90", "result": "no effects"}, {"measurement": "Effect on Hsp25", "setting": "Hsp25", "result": "no effects"}, {"measurement": "Effect on Hsp27", "setting": "Hsp27", "result": "no effects"}, {"measurement": "Effect on Hsp86", "setting": "Hsp86", "result": "no effects"}, {"measurement": "Protection of apoB", "setting": "apoB", "result": "protected"}]}]}
